Biological target: T1, Equilibrative nucleoside transporter 1 (Homo sapiens, UniProt Q99808)
T1 sequence (Q99808 whole entry): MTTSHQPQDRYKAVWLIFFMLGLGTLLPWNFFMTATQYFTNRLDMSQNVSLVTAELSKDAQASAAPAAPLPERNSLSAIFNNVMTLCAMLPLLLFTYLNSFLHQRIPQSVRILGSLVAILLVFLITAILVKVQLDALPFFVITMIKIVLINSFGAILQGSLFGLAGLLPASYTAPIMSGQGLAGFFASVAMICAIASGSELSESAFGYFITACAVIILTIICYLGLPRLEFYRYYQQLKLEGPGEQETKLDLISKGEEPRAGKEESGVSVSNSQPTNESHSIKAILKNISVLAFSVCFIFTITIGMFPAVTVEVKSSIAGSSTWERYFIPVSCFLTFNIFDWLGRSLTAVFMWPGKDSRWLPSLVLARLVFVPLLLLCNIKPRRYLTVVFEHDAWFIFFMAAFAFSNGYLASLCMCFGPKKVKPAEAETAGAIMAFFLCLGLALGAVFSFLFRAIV
Assay: Displacement of 5-(SAENTA)-X8-fluorescein from human ENT1 transporter in human K562 cells
Type: cell-based

`O=[N+]([O-])c1cccc2c1CN(c1ncnc3c1nc1n3[C@@H]3O[C@H](CO1)[C@@H](O)[C@H]3O)CC2` and `O=[N+]([O-])c1cccc2c1CCN(c1ncnc3c1nc1n3[C@@H]3O[C@H](CO1)[C@@H](O)[C@H]3O)C2` cannot be ordered by Ki: > 1 µM for the first, > 1 µM for the second.

Going from `O=[N+]([O-])c1ccc2c(c1)CN(c1ncnc3c1nc1n3[C@@H]3O[C@H](CO1)[C@@H](O)[C@H]3O)CC2` to `O=[N+]([O-])c1ccc2c(c1)CCN(c1ncnc3c1nc1n3[C@@H]3O[C@H](CO1)[C@@H](O)[C@H]3O)C2`, the Ki rises from 0.0189 µM to > 1 µM.

Biological target: T1, Equilibrative nucleoside transporter 1
Assay: Binding affinity to ENT1 transporter

First: O=[N+]([O-])c1cccc2c1CN(c1ncnc3c1nc1n3[C@@H]3O[C@H](CO1)[C@@H](O)[C@H]3O)CC2
Second: O=[N+]([O-])c1cccc2c1CCN(c1ncnc3c1nc1n3[C@@H]3O[C@H](CO1)[C@@H](O)[C@H]3O)C2
The IC50 of the first is 4.3-fold lower: 1740 µM for the first, 7410 µM for the second. The first is the more potent here.

Going from `O=[N+]([O-])c1ccc2c(c1)CN(c1ncnc3c1nc1n3[C@@H]3O[C@H](CO1)[C@@H](O)[C@H]3O)CC2` to `O=[N+]([O-])c1ccc2c(c1)CCN(c1ncnc3c1nc1n3[C@@H]3O[C@H](CO1)[C@@H](O)[C@H]3O)C2`, the IC50 rises from 0.331 µM to 245 µM (740-fold).

First: Nc1nc(SCc2cccnc2)c2ncn([C@@H]3O[C@H](CO)[C@@H](O)[C@H]3O)c2n1
Second: Nc1nc(SCc2ccccc2F)c2ncn([C@@H]3O[C@H](CO)[C@@H](O)[C@H]3O)c2n1
The IC50 of the first is 3.1-fold higher: 14.8 µM for the first, 4.79 µM for the second. The second is the more potent here.

Going from `OC[C@H]1O[C@@H](n2ccc3c(S)ncnc32)[C@H](O)[C@@H]1O` to `OC[C@H]1O[C@@H](n2cnc3c(NCc4ccccc4)ncnc32)[C@H](O)[C@@H]1O` [N6-BENZYLADENOSINE], the IC50 falls from 389 µM to 10.7 µM (36-fold).

Going from `c1ccc(CCNc2ncnc3[nH]ncc23)cc1` to `O=[N+]([O-])c1ccc(CNc2ncnc3c2ncn3[C@@H]2O[C@H](CCl)[C@@H](O)[C@H]2O)cc1`, the IC50 falls from 100 µM to 0.107 µM (930-fold).

`OC[C@H]1O[C@@H](n2cnc3c(CSc4cccc(Cl)c4)ncnc32)[C@H](O)[C@@H]1O` and `OC[C@H]1O[C@@H](n2cnc3c(CSc4cccc(Br)c4)ncnc32)[C@H](O)[C@@H]1O` are within 1.5-fold of each other in IC50: 0.282 µM for the first, 0.363 µM for the second.

Going from `CCCCSc1nc(N)nc2c1ncn2[C@@H]1O[C@H](CO)[C@@H](O)[C@H]1O` to `Cn1cnc([N+](=O)[O-])c1Sc1nc(N)nc2c1ncn2[C@@H]1O[C@H](CO)[C@@H](O)[C@H]1O`, the IC50 rises from 12 µM to 575 µM (48-fold). The first is the more potent here.

First: OC[C@H]1O[C@@H](n2cnc3c(N4CCc5ccccc5C4)ncnc32)[C@H](O)[C@@H]1O
Second: O=[N+]([O-])c1ccc2c(c1)CN(c1ncnc3c1ncn3[C@@H]1O[C@H](CO)[C@@H](O)[C@H]1O)CC2
The IC50 of the first is 330-fold higher: 1.82 µM for the first, 0.0055 µM for the second. The second is the more potent here.

Compared with `Cc1ccccc1CSc1ncnc2c1ncn2[C@@H]1O[C@H](CO)[C@@H](O)[C@H]1O`, `Cc1ccc(CSc2ncnc3c2ncn3[C@@H]2O[C@H](CO)[C@@H](O)[C@H]2O)cc1` is 14-fold lower in IC50: 6.31 µM for the first, 0.457 µM for the second.

First: OC[C@H]1O[C@@H](n2cnc3c(CSc4ccccc4Cl)ncnc32)[C@H](O)[C@@H]1O
Second: OC[C@H]1O[C@@H](n2cnc3c(CSc4ccccc4F)ncnc32)[C@H](O)[C@@H]1O
The IC50 of the first is 5-fold higher: 1.78 µM for the first, 0.355 µM for the second.

Compared with `CC(C)c1ccc(CSc2ncnc3c2ncn3[C@@H]2O[C@H](CO)[C@@H](O)[C@H]2O)cc1`, `Cc1ccc2ccccc2c1CSc1ncnc2c1ncn2[C@@H]1O[C@H](CO)[C@@H](O)[C@H]1O` is 24-fold higher in IC50: 4.79 µM for the first, 115 µM for the second.

`OC[C@H]1O[C@@H](n2cnc3c(CSc4ccc(Br)cc4)ncnc32)[C@H](O)[C@@H]1O` and `OC[C@H]1O[C@@H](n2cnc3c(CSc4ccc(F)cc4)ncnc32)[C@H](O)[C@@H]1O` are within 1.5-fold of each other in IC50: 0.178 µM for the first, 0.158 µM for the second.

Going from `OC[C@H]1O[C@@H](n2cnc3c(CSc4ccccc4I)ncnc32)[C@H](O)[C@@H]1O` to `COC(=O)c1ccc(SCc2ncnc3c2ncn3[C@@H]2O[C@H](CO)[C@@H](O)[C@H]2O)cc1`, the IC50 rises from 0.282 µM to 0.813 µM (2.9-fold).

First: O=[N+]([O-])c1cccc2c1CCN(c1ncnc3c1ncn3[C@@H]1O[C@H](CO)[C@@H](O)[C@H]1O)C2
Second: Nc1nc(SCc2ccccc2[N+](=O)[O-])c2ncn([C@@H]3O[C@H](CO)[C@@H](O)[C@H]3O)c2n1
The IC50 of the first is 1.5-fold lower: 3.02 µM for the first, 4.57 µM for the second.

Source: ChEMBL document CHEMBL1145549, “Constrained NBMPR analogue synthesis, pharmacophore mapping and 3D-QSAR modeling of equilibrative nucleoside transporter 1 (ENT1) inhibitory activity” (Bioorg Med Chem, 2008)
